GI50 and TGI data for 7 molecules are collected here from PubChem BioAssay (NCI).

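Results reflect a 48-hour exposure of cells in 96-well plates to compound at five concentrations. GI50 is the concentration that inhibits growth by half. TGI: total growth inhibition.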

Among the test systems are HL-60(TB) leukemia; KM12 colon; RXF 393 renal; ACHN renal; COLO 205 colon; NCI-H460 lung; HOP-92 NSCLC; TK-10 renal; MCF7 breast; M14 melanoma.
Assay in all cases: growth of human tumour cells (NCI), 48 h

Consider `CC[C@@]1(O)C(=O)OCc2c1cc1n(c2=O)Cc2c-1nc1cc3c(cc1c2CCl)OCO3`, for which the GI50 in the experiment on HL-60(TB) leukemia was below 0.01 µM; with KM12 colon, 0.181 µM; in the experiment with RXF 393 renal it was below 0.0138 µM; in the experiment with ACHN renal, below 0.01 µM; in the experiment on COLO 205 colon, 1.15 µM; with NCI-H460 lung, below 0.01 µM. Besides, the GI50 in the experiment with HOP-92 NSCLC is below 0.01 µM; in the experiment with TK-10 renal, 0.292 µM; in the experiment with MCF7 breast, below 0.01 µM; with M14 melanoma, 0.032 µM. Besides, the TGI in the experiment on KM12 colon is 1.88 µM; in the experiment with RXF 393 renal it was 1.21 µM; in the experiment on ACHN renal, 0.0322 µM; in the experiment on COLO 205 colon, 3.4 µM; in the experiment with NCI-H460 lung, below 0.0318 µM; with HOP-92 NSCLC it was 0.466 µM. In addition, the figures for the TGI with TK-10 renal, in the experiment on MCF7 breast and in the experiment on M14 melanoma were 11.1 µM, above 100 µM and 0.403 µM, respectively.

As to `N#Cc1ccc(NC(=O)Nc2ccc(Oc3ccc(NC(=O)Nc4ccc(C#N)cc4)cc3)cc2)cc1`, the GI50 was 1.17 µM in the experiment with HL-60(TB) leukemia; 11.2 µM in the experiment on KM12 colon; 15.3 µM in the experiment with RXF 393 renal; 18.8 µM with ACHN renal; 24.6 µM in the experiment with COLO 205 colon; 3.24 µM in the experiment with NCI-H460 lung. Also, the GI50 in the experiment on HOP-92 NSCLC was 13.3 µM; in the experiment on TK-10 renal, 23.2 µM; with MCF7 breast it was 3.71 µM; in the experiment on M14 melanoma, 28.3 µM. The TGI with HL-60(TB) leukemia is 83.8 µM; with KM12 colon it was above 100 µM; with RXF 393 renal it was above 100 µM; in the experiment with ACHN renal, above 100 µM; with COLO 205 colon, above 100 µM; in the experiment on NCI-H460 lung it was above 100 µM. Besides, the TGI with HOP-92 NSCLC is 62.7 µM; with TK-10 renal, 89 µM; in the experiment on MCF7 breast, above 100 µM; in the experiment with M14 melanoma, above 100 µM.

As for `C=CCCCCCCCCC(=O)[O][Sn]([CH2]CCC)([CH2]CCC)[CH2]CCC`, the GI50 in the experiment with HL-60(TB) leukemia is 0.169 µM; with KM12 colon, 0.145 µM; in the experiment with RXF 393 renal, 0.0991 µM; in the experiment with ACHN renal, 0.164 µM; in the experiment with COLO 205 colon, 0.172 µM; in the experiment with NCI-H460 lung, 0.152 µM. In addition, the GI50 with HOP-92 NSCLC is 0.075 µM; with TK-10 renal, 0.165 µM; in the experiment on MCF7 breast it was 0.137 µM; with M14 melanoma it was 0.156 µM. For the same molecule, the TGI in the experiment on HL-60(TB) leukemia amounted to 0.464 µM; in the experiment on KM12 colon, 0.3 µM; in the experiment with RXF 393 renal it was 0.255 µM; in the experiment on ACHN renal it was 0.31 µM; in the experiment with COLO 205 colon it was 0.371 µM; with NCI-H460 lung, 0.312 µM. Further, the TGI came to 0.24 µM in the experiment on HOP-92 NSCLC, 0.311 µM in the experiment on TK-10 renal, 0.272 µM in the experiment on MCF7 breast and 0.299 µM in the experiment on M14 melanoma.

For the molecule `COc1ccc(/C=C/c2nccc3ccccc23)cc1OC`, the TGI in the experiment with HL-60(TB) leukemia, in the experiment with KM12 colon, in the experiment with RXF 393 renal, with ACHN renal, with COLO 205 colon and in the experiment with NCI-H460 lung was above 10 µM in each case. In addition, the TGI in the experiment with HOP-92 NSCLC, with TK-10 renal, with MCF7 breast and in the experiment on M14 melanoma was above 10 µM in each case.

Consider `O=C1CCCCN1CCCCC#Cc1ccccc1C#Cc1ccc([N+](=O)[O-])cc1`, for which the GI50 in the experiment on HL-60(TB) leukemia is 1.75 µM; in the experiment on KM12 colon, 3.78 µM; in the experiment on RXF 393 renal, 1.68 µM; in the experiment on ACHN renal, 3.44 µM; with COLO 205 colon, 2.75 µM; in the experiment with NCI-H460 lung it was 2 µM. The GI50 in the experiment on HOP-92 NSCLC was 4.39 µM; in the experiment on TK-10 renal, 7.72 µM; in the experiment with MCF7 breast, 1.38 µM; with M14 melanoma, 5.16 µM. The TGI in the experiment with HL-60(TB) leukemia was found to be 6.64 µM; with KM12 colon, 15.7 µM; in the experiment with RXF 393 renal, 11.1 µM; in the experiment on ACHN renal it was 11.3 µM; in the experiment on COLO 205 colon it was 7.17 µM; with NCI-H460 lung, 4.35 µM. Besides, the TGI with HOP-92 NSCLC came out at 27.4 µM; with TK-10 renal, 30.5 µM; with MCF7 breast it was 3.65 µM; in the experiment on M14 melanoma, 19.3 µM.

Take `COc1ccc(/C(COc2c(-c3ccccc3)oc3ccccc3c2=O)=N\O)cc1`: the GI50 with HL-60(TB) leukemia was 20 µM; in the experiment with KM12 colon, 9.46 µM; with RXF 393 renal it was 31.9 µM; in the experiment on ACHN renal, 10.6 µM; in the experiment with COLO 205 colon, 12 µM; in the experiment with NCI-H460 lung, 12.3 µM. Further, the GI50 in the experiment on HOP-92 NSCLC was above 50 µM; in the experiment with TK-10 renal, 10.2 µM; in the experiment with MCF7 breast, 10.8 µM; in the experiment with M14 melanoma, 28.3 µM. In addition, the TGI with HL-60(TB) leukemia is above 50 µM; in the experiment on KM12 colon, 23.4 µM; in the experiment with RXF 393 renal, above 50 µM; with ACHN renal it was 26.3 µM; in the experiment with COLO 205 colon it was 30.9 µM; in the experiment with NCI-H460 lung it was 39.6 µM. Moreover, the TGI was above 50 µM in the experiment on HOP-92 NSCLC, 26.2 µM with TK-10 renal, 29.5 µM in the experiment on MCF7 breast and above 50 µM in the experiment with M14 melanoma.

On to `Oc1ccc(CN2CCC(N3CCCCC3)CC2)c2cccnc12`, for which the GI50 in the experiment with HL-60(TB) leukemia was 6.86 µM; in the experiment with KM12 colon, 30.3 µM; with RXF 393 renal it was 11.7 µM; with ACHN renal it was 5.95 µM; in the experiment with COLO 205 colon it was 48.4 µM; with NCI-H460 lung, 4.01 µM. In addition, the GI50 with HOP-92 NSCLC was 4.51 µM; in the experiment with TK-10 renal, 78.2 µM; in the experiment with MCF7 breast it was 21.5 µM; in the experiment with M14 melanoma it was 5.75 µM. Further, the TGI with HL-60(TB) leukemia is 46.7 µM; in the experiment on KM12 colon, above 100 µM; in the experiment with RXF 393 renal, above 100 µM; with ACHN renal, above 100 µM; with COLO 205 colon, above 100 µM; in the experiment with NCI-H460 lung, above 100 µM. The TGI in the experiment with HOP-92 NSCLC, in the experiment with TK-10 renal, in the experiment on MCF7 breast and in the experiment on M14 melanoma was above 100 µM each time.
